Data published in US12214059B2, “Cleavable radioligands for targeting cell surface receptors and uses thereof” (Full-Life Te[…] Limited, priority 2021, dated 2025).

Key:
[1] = molecular target: T1, PSMA (Homo sapiens, UniProt Q04609); experiment: Cell-based radioligand competitive binding assay (^125I-C-8, LNCaP cells); settings: for Relative Binding Affinity: C-1 = 1.00
T1 construct: host or cells: LNCaP cells
Description: The culture medium was replaced with fresh medium every 2-3 days. Experiments were performed with cells at 70-80% confluence.
The final volume in each well was maintained at 200 μL and insufficient volume was adjusted by the binding buffer.

[2] = Ex-vivo mouse plasma stability study of ^177Lu-labeled compounds; format: in vitro ADME; settings: 37° C.
Description: Plasma Stability Study (Mouse and Human)
Mouse blood was collected via cardiac puncture of the left ventricle. Blood was placed into heparin-coated microfuge tubes and then centrifuged at 3500 rpm for 10 min to separate plasma for stability studies. Human plasma was purchased directly.
At each time point (0, 1, 2, 4, 24, 48 72 h), an aliquot of 25 μL sample was taken and mixed with 100 μL methanol containing 1% formic acid, vertex for 30-60 sec, then centrifuged at 20000 rpm for 10 min. 100 μL supernatant was collected and diluted with 40 μL H2O. 100 μL of the resulting mixture was injected to radio-HPLC for stability assessment, as shown examples FIG. 2 and FIG. 3. The best-fit T½ value of test compounds were calculated by fitting the data with linear or non-linear regression using GraphPad Prism 8.0.1.

[3] = system: PC-3 PIP tumor-bearing mice; experiment: Biodistribution study in SCID mice bearing PC3-PIP tumor; format: in vivo, mouse; settings: PC3 PIP tumor-bearing mice
Description: Biodistribution Study in SCID Mice Bearing PC3-PIP Tumor
Severe combined immunodeficient (ICR-SCID) mice from the Institute of Cancer Research (Taconic Farms, Germantown, NY) were utilized for these studies. […] These mice received bilateral subcutaneous rear flank injections of approximately 10×10^6 PC-3 PIP cells (prostate cancer cell PC-3 stably expressing human PSMA) suspended in 100 μL of 0.9% NaCl. […] The tissues and organs were weighed, counted in a PerkinElmer Wizard 3 automatic γ counter, and the percent injected dose (% ID) and % ID/g of each organ or tissue were calculated, as shown in Tables 5-24 and FIG. 1 and FIG. 2.

[4] = system: LNCap tumor-bearing mice; experiment: Biodistribution study in CB-17 SCID mice bearing LNCap tumor; format: in vivo, mouse; settings: LNCap tumor-bearing mice
Description: Biodistribution Study in CB-17 SCID Mice Bearing LNCap Tumor
All animal care and experimental procedure were performed by following the animal protocols approved by the ethics committee of China Institute of Radiation Protection. The CB-17 SCID mice (Charles River, Beijing) were utilized for these studies. […] These mice received subcutaneous rear flank injections of approximately 4×10^6 LNCap cells suspended in 200 μL of phosphate-buffered saline (PBS) and Matrigel (Corning) (1/1).

T1 sequence (Q04609 whole entry): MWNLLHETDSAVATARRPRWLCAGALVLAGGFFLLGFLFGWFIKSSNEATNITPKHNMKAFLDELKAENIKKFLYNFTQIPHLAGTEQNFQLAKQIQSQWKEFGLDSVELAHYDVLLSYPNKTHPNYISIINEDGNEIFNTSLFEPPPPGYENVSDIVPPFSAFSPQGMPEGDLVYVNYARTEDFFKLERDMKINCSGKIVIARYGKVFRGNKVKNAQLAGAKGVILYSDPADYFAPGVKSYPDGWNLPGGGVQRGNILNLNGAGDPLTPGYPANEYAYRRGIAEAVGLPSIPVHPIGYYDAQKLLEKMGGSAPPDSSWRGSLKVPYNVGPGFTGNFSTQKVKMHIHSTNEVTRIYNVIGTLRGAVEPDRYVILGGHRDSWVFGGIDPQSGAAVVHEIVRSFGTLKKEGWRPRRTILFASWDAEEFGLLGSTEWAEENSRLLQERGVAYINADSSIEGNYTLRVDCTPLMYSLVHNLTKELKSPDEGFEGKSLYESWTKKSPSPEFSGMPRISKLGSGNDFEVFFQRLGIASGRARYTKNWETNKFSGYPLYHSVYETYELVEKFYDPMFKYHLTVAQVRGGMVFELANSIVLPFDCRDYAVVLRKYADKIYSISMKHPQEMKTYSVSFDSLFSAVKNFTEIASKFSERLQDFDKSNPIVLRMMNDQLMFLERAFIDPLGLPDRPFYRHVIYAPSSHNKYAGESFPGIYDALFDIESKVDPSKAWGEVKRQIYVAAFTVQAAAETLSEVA

## O=C(O)CC[C@H](NC(=O)N[C@@H](CCCCNC(=O)[C@H](Cc1ccc2ccccc2c1)NC(=O)C1CCC(CNC(=O)CN2CCN(CC(=O)O)CCN(CC(=O)O)CCN(CC(=O)O)CC2)CC1)C(=O)O)C(=O)O (stereo partly drawn) [Example C-1, (((S)-1-carboxy-5-((S)-3-(naphthalen-2-yl)-2-((1r,4S)-4-((2-(4,7,10-tris(carboxymethyl)-1,4,7,10-tetraazacyclododecan-1-yl)acetamido)methyl)cyclohexane-1-carboxamido)propanamido)pentyl)carbamoyl)-L-glutamic acid tetra(trifluoroacetic acid), reference compound]
[1]; based on the mean value of the IC50 number
  Relative Binding Affinity: 1.00
[1]; log10 of IC50 (negative values), nonlin fit, LNCaP cells, ^125I-C-8 radioligand
  LogIC50 Mean: −8.544
[1]; nonlin fit, LNCaP cells, ^125I-C-8 radioligand, scientific notation, unit inferred
  IC50: 2.86 nM
[1]; relative
  Relative Binding Affinity: 1.00
[2]; 0 min
  % Remaining 0 min: 100%
[2]; 1 h
  % Remaining 1 h: 100%
[2]; 4 h
  % Remaining 4 h: 100%
[2]; 24 h
  % Remaining 24 h: 100%
[2]; 48 h
  % Remaining 48 h: 100%
[2]; 72 h
  % Remaining 72 h: 100%
[2]; * = value obtained using nonlinear regression
  T½ (h): Stable
[3]; 4 h
  T/K at 4 h (tumor uptake/kidney uptake): 7.0
[3]; 24 h
  T at 24 h (tumor uptake): 10.4
  T/K at 24 h (tumor uptake/kidney uptake): 57
[3]; 96 h
  T at 96 h (tumor uptake): 7.3
  T/K at 96 h (tumor uptake/kidney uptake): 182
[4]; 4 h
  T/K at 4 h (tumor uptake/kidney uptake): 2.52
[4]; 24 h
  T at 24 h (tumor uptake): 10.0
  T/K at 24 h (tumor uptake/kidney uptake): 7.04
[4]; 96 h
  T at 96 h (tumor uptake): 10.1
[4]; value at 72 h
  T/K at 96 h (tumor uptake/kidney uptake), *value at 72 h: 15.5*
